Experimental findings from ChEMBL document CHEMBL1201862, “PubChem BioAssay data set” (2004) are described below.

What all share (assay): DTP human tumour cell line panel, 48 h
Test [1] has as its system IGROV-1.
Test [2] relates to SK-MEL-5.
Test [3] concerns TK-10.
Test [4] deals with NCI-H23.
The test system of test [5] is SNB-75.
In test [6] the test system is Hs-578T.
In test [7] the test system is OVCAR-3.
Test [8] has as its system UACC-257.
The subject of test [9] is NCI-H226.
Test [10] deals with BT-549.
Test [11] deals with OVCAR-4.
Test [12] deals with ACHN.
Test [13] has as its system SK-MEL-28.
The subject of test [14] is OVCAR-5.
Test [15] has as its system COLO 205.
Test [16] relates to SK-OV-3.
Test [17] has as its system LOX IMVI.
The test system of test [18] is T47D.
Test [19] deals with CCRF-CEM.
Test [20] deals with HL-60.

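Interpolation was linear, between the two tested concentrations surrounding the appropriate level; five concentrations were tested over 48 hours in 96-well plates. Here, GI50 denotes the concentration required for 50% inhibition of growth.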 Calls of active or inactive are those of the source. No stated cut-off is given here; in the data, active = GI50 up to about 1.1 µM and inactive = higher. Some results are limits rather than exact numbers.

As for `O=C(O)CSc1nnc2c3ccccc3c3ccccc3c2n1`, the GI50 in [1] is 55.6 µM (inactive); in test [2] it was 45.9 µM (inactive); in test [3] it was > 100 µM (inactive); in test [4] it was > 100 µM (inactive); in [5], 36.6 µM (inactive); in [6], 70.6 µM (inactive). Further, the GI50 in test [7] was 33.3 µM (inactive); in [8] it was > 100 µM (inactive); in [9], 85.7 µM (inactive); in test [10] it was > 100 µM (inactive); in test [11], 45.6 µM (inactive); in test [12] it was 53.6 µM (inactive). Further, the GI50 is > 100 µM (inactive) in test [13]; > 100 µM (inactive) in test [14]; > 100 µM (inactive) in [15]; 71 µM (inactive) in test [16]; 41.6 µM (inactive) in test [17].

Consider `O=C1CC(c2cccc(F)c2)Nc2cc3c(cc21)OCO3` (centres undefined), for which the GI50 in test [1] is 0.0483 µM (active); in [2] it was 0.0224 µM (active); in test [3] it was 1.13 µM (inactive); in [4] it was 0.0335 µM (active); in test [6], < 0.01 µM (active); in [7] it was 0.0521 µM (active). In addition, the GI50 in [8] is 0.0638 µM (active); in test [18] it was > 100 µM (inactive); in test [9] it was 0.027 µM (active); in test [10] it was > 10 µM (inactive); in test [11], 1.8 µM (inactive); in [12], 0.0649 µM (active). Besides, the GI50 was 0.054 µM (active) in [14]; 0.0292 µM (active) in test [15]; 0.0955 µM (active) in test [16]; 0.033 µM (active) in test [19]; 0.0631 µM (active) in [17].

With `Cc1cccc(/C=N/NC(=S)N2CCCC2)n1`, the GI50 in test [1] was 0.822 µM (active); in [2], 0.259 µM (active); in test [3], 0.177 µM (active); in test [4] it was 0.215 µM (active); in [20], 0.0559 µM (active); in test [5], 2.95 µM (inactive). Besides, the GI50 in [7] was 0.0255 µM (active); in test [8], 0.486 µM (active); in test [18], < 0.0306 µM (active); in test [9], 2.41 µM (inactive); in [10] it was 1.76 µM (inactive); in [11], 0.195 µM (active). In addition, the GI50 in test [12] is 0.202 µM (active); in [13], 1.02 µM (active); in [14], 0.132 µM (active); in test [15], 0.325 µM (active); in [19], < 0.01 µM (active); in [17], 0.267 µM (active).

For the compound `Fc1cc(-c2ncc(Cl)cc2Cl)c2cccccc1-2`, the GI50 in test [1], in test [2], in test [3], in [4], in [5] and in test [6] was > 100 µM (inactive) each time. Besides, the GI50 in test [7], in test [8], in test [9], in [10], in test [12] and in test [14] was > 100 µM (inactive) in each case. The GI50 in test [15], in test [16] and in [17] was > 100 µM (inactive) throughout.

As to `C[C@@]1(O)C[C@@H](N2C(=O)O[C@@H](c3ccccc3)[C@H]2c2ccccc2)[C@@H]1COCc1ccccc1`, the GI50 in test [1] is 25 µM (inactive); in test [2], 13.7 µM (inactive); in test [3], 29.2 µM (inactive); in test [4], 16.1 µM (inactive); in test [20], 6.35 µM (inactive); in test [6] it was 21.9 µM (inactive). The GI50 in test [7] was 17.3 µM (inactive); in [8] it was 15.9 µM (inactive); in test [9] it was 20.2 µM (inactive); in [10] it was 17.5 µM (inactive); in test [11], 22.9 µM (inactive); in test [12] it was 26.2 µM (inactive). Moreover, the GI50 in test [13] is 18.2 µM (inactive); in test [14] it was 23.1 µM (inactive); in test [15], 15 µM (inactive); in [17] it was 15.9 µM (inactive).

Take `Cc1cccc2c1Oc1ncccc1C2NC(=O)CN(C)C` (centres undefined): the GI50 in [1] was > 10 µM (inactive); in test [3], > 10 µM (inactive); in test [4], > 10 µM (inactive); in test [20], > 10 µM (inactive); in test [5], 7.78 µM (inactive); in [7] it was > 10 µM (inactive). The GI50 in test [8], in test [9], in test [10], in test [11], in [12] and in test [14] was > 10 µM (inactive) each time. Further, the GI50 in test [16], in [19] and in test [17] was > 10 µM (inactive) each time.

Regarding `O=P1(Oc2ccccc2)NCc2ncccc2O1` (centres undefined), the GI50 in test [1], in [2], in [4], in [5], in test [7] and in test [8] was > 100 µM (inactive) each time. Besides, the GI50 in test [18], in [9], in test [10], in [11], in test [12] and in test [13] was > 100 µM (inactive) each time. In addition, the GI50 in [14], in test [15], in test [19] and in [17] was > 100 µM (inactive) in each case.

Take `CC1(C)CC(=O)c2c(N)n[nH]c2C1`: the GI50 in [1], in test [2], in [4], in test [20], in test [5] and in [7] was > 100 µM (inactive) each time. Besides, the GI50 in [8], in [9], in test [10], in test [11], in test [12] and in test [13] was > 100 µM (inactive) each time. Also, the GI50 in test [14], in test [15], in test [19] and in test [17] was > 100 µM (inactive) throughout.

As for `COc1ccc(C)cc1NC(=S)C#N`, the GI50 in test [2] is > 100 µM (inactive); in test [3] it was 31.9 µM (inactive); in test [4], 33.3 µM (inactive); in test [20] it was > 100 µM (inactive); in [5], 25.1 µM (inactive); in test [7], 27.1 µM (inactive). Besides, the GI50 was 35.3 µM (inactive) in test [8]; > 100 µM (inactive) in test [18]; 27.5 µM (inactive) in [9]; 35.2 µM (inactive) in test [10]; 30.3 µM (inactive) in test [12]; > 100 µM (inactive) in test [13]. Further, the GI50 in [14] was 29.6 µM (inactive); in test [15], > 100 µM (inactive); in [16] it was 27.8 µM (inactive); in [19], 71 µM (inactive); in test [17], > 100 µM (inactive).

On to `CCOc1ccc(N2C(=O)NC3(c4ccccc4)N(C)C(=O)N(C)C23c2ccccc2)cc1` (centres undefined), for which the GI50 is > 100 µM (inactive) in test [1]; 68.9 µM (inactive) in test [2]; > 100 µM (inactive) in test [4]; 75.2 µM (inactive) in test [20]; 12.4 µM (inactive) in test [5]; > 100 µM (inactive) in test [7]. The GI50 in [8] is > 100 µM (inactive); in test [9], 61 µM (inactive); in test [10], 83.9 µM (inactive); in [12], > 100 µM (inactive); in test [13], > 100 µM (inactive); in [14] it was > 100 µM (inactive). In addition, the GI50 in [15], in [16], in test [19] and in test [17] was > 100 µM (inactive) throughout.

For `O=C(Nc1cc2c(=O)[nH]c3ccccc3c2oc1=O)c1cnccn1`, the GI50 in [1], in test [2], in test [3], in test [4], in [5] and in test [7] was > 100 µM (inactive) in each case. Further, the GI50 in [8], in test [18], in test [9], in test [10], in test [11] and in test [12] was > 100 µM (inactive) throughout. In addition, the GI50 in test [13], in test [14], in test [15], in test [16], in test [19] and in test [17] was > 100 µM (inactive) each time.

With `COc1ccc(-c2nc3cc(F)ccc3s2)cc1O`, the GI50 in test [1] is 3.81 µM (inactive); in test [2], 22.5 µM (inactive); in [3], 16.2 µM (inactive); in test [4], 29.3 µM (inactive); in test [20], 32.6 µM (inactive); in test [7], 29.7 µM (inactive). The GI50 is 24.9 µM (inactive) in test [8]; 0.514 µM (active) in test [18]; 23.8 µM (inactive) in test [9]; 17.2 µM (inactive) in test [10]; 28.8 µM (inactive) in test [11]; 28.7 µM (inactive) in test [12]. Further, the GI50 in test [13] was 75.7 µM (inactive); in test [14], 48.6 µM (inactive); in [15] it was 28.7 µM (inactive); in [16], 29.8 µM (inactive); in test [19], 4.53 µM (inactive); in test [17], 21.1 µM (inactive).
